Test results: the SangsterLogP compilation

logP	SMILES
3.34	CONC(=O)[C@@H](C(C)C)N(Cc1cccnc1)S(=O)(=O)c1ccccc1Br
2.38	CONC(=O)[C@@H](C(C)C)N(Cc1cccnc1)S(=O)(=O)c1cccc(Cl)c1
2.01	CONC(=O)[C@@H](C(C)C)N(Cc1cccnc1)S(=O)(=O)c1ccccc1Cl
1.82	CC(C)[C@H](C(=O)NO)N(Cc1cccnc1)S(=O)(=O)c1cccc(Cl)c1
2.45	CC(C)[C@H](C(=O)NO)N(Cc1cccnc1)S(=O)(=O)c1ccc(I)cc1
1.4	CC(C)[C@H](C(=O)NO)N(Cc1cccnc1)S(=O)(=O)c1ccc(F)cc1
1.45	CC(C)[C@H](C(=O)NO)N(Cc1cccnc1)S(=O)(=O)c1ccccc1Cl
1.54	CC(C)C(C(=O)NO)N(Cc1cccnc1)S(=O)(=O)c1ccccc1Br (configuration not stated)
2.67	CONC(=O)[C@@H](C(C)C)N(Cc1cccnc1)S(=O)(=O)c1ccccc1F
1.81	CC(C)[C@H](C(=O)NO)N(Cc1cccnc1)S(=O)(=O)c1ccc(Cl)cc1
3.11	CONC(=O)C(C(C)C)N(Cc1cccnc1)S(=O)(=O)c1ccc(I)cc1 (configuration not stated)
1.91	CC(C)C(C(=O)NO)N(Cc1cccnc1)S(=O)(=O)c1ccc(Br)cc1 (configuration not stated)
2.4	CONC(=O)[C@@H](C(C)C)N(Cc1cccnc1)S(=O)(=O)c1ccc(Cl)cc1
2.51	CONC(=O)[C@@H](C(C)C)N(Cc1cccnc1)S(=O)(=O)c1ccc(Br)cc1
1.92	CC(C)[C@H](C(=O)NO)N(Cc1cccnc1)S(=O)(=O)c1cccc(Br)c1
2	CONC(=O)[C@@H](C(C)C)N(Cc1cccnc1)S(=O)(=O)c1ccc(F)cc1
1.65	CC(C)[C@H](C(=O)NO)N(Cc1cccnc1)S(=O)(=O)c1ccccc1F
